Data from patent publication US20240116892A1, “HETEROCYCLIC AMIDE AND UREA COMPOUNDS AS JAK2 INHIBITORS” (Ajax Therapeutics, Inc., priority 2022, published 2024).

The compounds below were run against JAK2 (JH1 domain-catalytic, Y1007F, Y1008F) kinase (Homo sapiens (Human), UniProt O60674, Y1007F/Y1008F) (assay: JAK2 JH1 Domain Binding Assay). Conditions: qPCR readout.
Summary of the method: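 JH1 catalytic domain (Y1007F/Y1008F) expressed as NFkB DNA-binding-domain fusion in HEK293 cells, DNA-tagged. Competition with immobilized biotinylated ligand on streptavidin beads, 1 h at RT in PBS/Tween/BSA/DTT; bound kinase eluted with free ligand and quantified by qPCR.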

Chain of JAK2 (JH1 domain-catalytic, Y1007F, Y1008F) kinase (O60674 849-1124 Y1007F/Y1008F): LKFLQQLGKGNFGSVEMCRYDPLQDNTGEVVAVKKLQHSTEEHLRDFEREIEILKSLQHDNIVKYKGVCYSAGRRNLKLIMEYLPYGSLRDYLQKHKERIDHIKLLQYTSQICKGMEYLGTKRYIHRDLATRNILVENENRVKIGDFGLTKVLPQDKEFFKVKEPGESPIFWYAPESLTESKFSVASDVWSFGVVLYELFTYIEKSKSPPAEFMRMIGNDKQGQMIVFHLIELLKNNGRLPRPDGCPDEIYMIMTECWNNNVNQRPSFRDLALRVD

Row | Structure (SMILES) | Kd
1 | COCCOc1n[nH]c2ncc(N3CC[C@@H]4[C@@H](C3)OCCN4C(=O)Nc3cc(C(F)(F)F)cn(C)c3=O)cc12 [Example I-162-b, (4aR,8aR)-6-(3-(2-methoxyethoxy)-1H-pyrazolo[3,4-b]pyridin-5-yl)-N-(1-methyl-2-oxo-5-(trifluoromethyl)-1,2-dihydropyridin-3-yl)octahydro-1H-pyrido[3,4-b][1,4]oxazine-1-carboxamide] | 0.01 to 0.05 µM
2 | COc1c[nH]c2ncc(N3CC[C@H]4[C@H](C3)OCCN4C(=O)Nc3cc(C(F)(F)F)cn(C)c3=O)nc12 [Example I-163-a, (4aS,8aS)-6-(7-methoxy-5H-pyrrolo[2,3-b]pyrazin-2-yl)-N-(1-methyl-2-oxo-5-(trifluoromethyl)-1,2-dihydropyridin-3-yl)octahydro-1H-pyrido[3,4-b][1,4]oxazine-1-carboxamide] | 0.01 to 0.05 µM
3 | COc1c[nH]c2ncc(N3CC[C@@H]4[C@@H](C3)OCCN4C(=O)Nc3cc(C(F)(F)F)cn(C)c3=O)nc12 [Example I-163-b, (4aR,8aR)-6-(7-methoxy-5H-pyrrolo[2,3-b]pyrazin-2-yl)-N-(1-methyl-2-oxo-5-(trifluoromethyl)-1,2-dihydropyridin-3-yl)octahydro-1H-pyrido[3,4-b][1,4]oxazine-1-carboxamide] | 0.01 to 0.05 µM
4 | COCc1cc2nc(N3CC[C@H]4[C@H](C3)OCCN4C(=O)Nc3cc(C(F)(F)F)cn(C)c3=O)cnc2[nH]1 [Example I-164-a, (4aS,8aS)-6-(6-(methoxymethyl)-5H-pyrrolo[2,3-b]pyrazin-2-yl)-N-(1-methyl-2-oxo-5-(trifluoromethyl)-1,2-dihydropyridin-3-yl)octahydro-1/-pyrido[3,4-b][1,4]oxazine-1-carboxamide] | 0.05 to 1 µM
5 | COCc1cc2nc(N3CC[C@@H]4[C@@H](C3)OCCN4C(=O)Nc3cc(C(F)(F)F)cn(C)c3=O)cnc2[nH]1 [Example I-164-b, (4aR,8aR)-6-(6-(methoxymethyl)-5H-pyrrolo[2,3-b]pyrazin-2-yl)-N-(1-methyl-2-oxo-5-(trifluoromethyl)-1,2-dihydropyridin-3-yl)octahydro-1H-pyrido[3,4-b][1,4]oxazine-1-carboxamide] | 0.01 to 0.05 µM
6 | CN(C(=O)Nc1cc(C(F)(F)F)cn(C)c1=O)C12CCC(c3cnc4[nH]ncc4c3)(CC1)OC2 [Example I-168, 1-(1-(1H-pyrazolo[3,4-b]pyridin-5-yl)-2-oxabicyclo[2.2.2]octan-4-yl)-1-methyl-3-(1-methyl-2-oxo-5-(trifluoromethyl)-1,2-dihydropyridin-3-yl)urea] | < 0.01 µM
7 | COc1c[nH]c2ncc([C@H]3CC[C@H](N(C)C(=O)Nc4cc(C(F)(F)F)cn(C)c4=O)CC3)nc12 [Example I-170, trans-1-(4-(7-methoxy-5H-pyrrolo[2,3-b]pyrazin-2-yl)cyclohexyl)-1-methyl-3-(1-methyl-2-oxo-5-(trifluoromethyl)-1,2-dihydropyridin-3-yl)urea] | < 0.01 µM
8 | COc1c[nH]c2ncc([C@H]3CC[C@@H](N(C)C(=O)Nc4cc(C(F)(F)F)cn(C)c4=O)CC3)nc12 [Example I-171, cis-1-(4-(7-methoxy-5H-pyrrolo[2,3-b]pyrazin-2-yl)cyclohexyl)-1-methyl-3-(1-methyl-2-oxo-5-(trifluoromethyl)-1,2-dihydropyridin-3-yl)urea] | 0.05 to 1 µM
9 | CN(C(=O)Nc1cc(C(C)(C)C)n([C@@H]2CCOC2)n1)C1CCN(c2cnc3[nH]ncc3c2)CC1 [Example I-173, (R)-1-(1-(1H-pyrazolo[3,4-b]pyridin-5-yl)piperidin-4-yl)-3-(5-(tert-butyl)-1-(tetrahydrofuran-3-yl)-1H-pyrazol-3-yl)-1-methylurea] | < 0.01 µM
10 | CN(C(=O)Nc1cc(C(C)(C)C)n([C@H]2CCOC2)n1)C1CCN(c2cnc3[nH]ncc3c2)CC1 [Example I-174, (S)-1-(1-(1H-pyrazolo[3,4-b]pyridin-5-yl)piperidin-4-yl)-3-(5-(tert-butyl)-1-(tetrahydrofuran-3-yl)-1H-pyrazol-3-yl)-1-methylurea] | < 0.01 µM
